Experimental data reported in PubChem BioAssay (NCI).
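Cultured in 96-well plates, cells were exposed to test compound for 48 hours across five concentrations. Abbreviation: GI50, concentration required for 50% inhibition of growth. TGI: concentration producing complete growth inhibition.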

How the values were obtained:
Assay in all cases: NCI tumour cell line growth inhibition, 48 h
IGROV1 ovarian = system: IGROV1 ovarian
SK-OV-3 ovarian = system: SK-OV-3 ovarian
HOP-92 NSCLC = system: HOP-92 NSCLC
UO-31 renal = system: UO-31 renal
A549 NSCLC = system: A549 NSCLC
COLO 205 colon = system: COLO 205 colon
SK-MEL-5 melanoma = system: SK-MEL-5 melanoma
MCF7 breast = system: MCF7 breast
SF-295 CNS = system: SF-295 CNS
UACC-62 melanoma = system: UACC-62 melanoma
786-0 renal = system: 786-0 renal
A498 renal = system: A498 renal
SR leukemia = system: SR leukemia
UACC-257 melanoma = system: UACC-257 melanoma
HT29 colon = system: HT29 colon
DU-145 prostate = system: DU-145 prostate
OVCAR-8 ovarian = system: OVCAR-8 ovarian
BT-549 breast = system: BT-549 breast
SNB-19 CNS = system: SNB-19 CNS
HOP-62 NSCLC = system: HOP-62 NSCLC
HCC-2998 colon = system: HCC-2998 colon
OVCAR-4 ovarian = system: OVCAR-4 ovarian
HS 578T breast = system: HS 578T breast
MALME-3M melanoma = system: MALME-3M melanoma
LOX IMVI melanoma = system: LOX IMVI melanoma
NCI-H23 lung = system: NCI-H23 lung
CAKI-1 renal = system: CAKI-1 renal
SK-MEL-28 melanoma = system: SK-MEL-28 melanoma
OVCAR-3 ovarian = system: OVCAR-3 ovarian
HL-60(TB) leukemia = system: HL-60(TB) leukemia
NCI-H460 lung = system: NCI-H460 lung
HCT-116 colon = system: HCT-116 colon
OVCAR-5 ovarian = system: OVCAR-5 ovarian
M14 melanoma = system: M14 melanoma
PC-3 prostate = system: PC-3 prostate
EKVX NSCLC = system: EKVX NSCLC
NCI-H522 lung = system: NCI-H522 lung
SN12C renal = system: SN12C renal
SF-268 CNS = system: SF-268 CNS
SF-539 CNS = system: SF-539 CNS
T-47D breast = system: T-47D breast
MDA-MB-435 = system: MDA-MB-435
RPMI-8226 leukemia = system: RPMI-8226 leukemia
KM12 colon = system: KM12 colon
U251 CNS = system: U251 CNS
MDA-MB-231 breast = system: MDA-MB-231 breast
RXF 393 renal = system: RXF 393 renal
NCI-H226 lung = system: NCI-H226 lung
MOLT-4 leukemia = system: MOLT-4 leukemia
SNB-75 CNS = system: SNB-75 CNS
NCI/ADR-RES ovarian = system: NCI/ADR-RES ovarian
SK-MEL-2 melanoma = system: SK-MEL-2 melanoma
SW-620 colon = system: SW-620 colon
ACHN renal = system: ACHN renal
TK-10 renal = system: TK-10 renal
HCT-15 colon = system: HCT-15 colon
CCRF-CEM leukemia = system: CCRF-CEM leukemia

**Q.** Which results are given for `O=C(O)c1ccc(NCc2nc3cc(Cl)c(Cl)cc3[nH]2)cc1`?
**A.** GI50 (IGROV1 ovarian): > 100 µM; TGI (IGROV1 ovarian): > 100 µM; GI50 (SK-OV-3 ovarian): > 100 µM; TGI (SK-OV-3 ovarian): > 100 µM; GI50 (HOP-92 NSCLC): > 100 µM; TGI (HOP-92 NSCLC): > 100 µM; GI50 (UO-31 renal): > 100 µM; TGI (UO-31 renal): > 100 µM; GI50 (A549 NSCLC): > 100 µM; TGI (A549 NSCLC): > 100 µM; GI50 (COLO 205 colon): > 100 µM; TGI (COLO 205 colon): > 100 µM; GI50 (SK-MEL-5 melanoma): 93.4 µM; TGI (SK-MEL-5 melanoma): > 100 µM; GI50 (MCF7 breast): 6.03 µM; TGI (MCF7 breast): > 100 µM; GI50 (SF-295 CNS): > 100 µM; TGI (SF-295 CNS): > 100 µM; GI50 (UACC-62 melanoma): > 100 µM; TGI (UACC-62 melanoma): > 100 µM; GI50 (786-0 renal): > 100 µM; TGI (786-0 renal): > 100 µM; GI50 (A498 renal): > 100 µM; TGI (A498 renal): > 100 µM; GI50 (SR leukemia): 69.6 µM; TGI (SR leukemia): > 100 µM; GI50 (UACC-257 melanoma): 5.28 µM; TGI (UACC-257 melanoma): 77.6 µM; GI50 (HT29 colon): > 100 µM; TGI (HT29 colon): > 100 µM; GI50 (DU-145 prostate): > 100 µM; TGI (DU-145 prostate): > 100 µM; GI50 (OVCAR-8 ovarian): > 100 µM; TGI (OVCAR-8 ovarian): > 100 µM; GI50 (BT-549 breast): > 100 µM; TGI (BT-549 breast): > 100 µM; GI50 (SNB-19 CNS): > 100 µM; TGI (SNB-19 CNS): > 100 µM; GI50 (HOP-62 NSCLC): > 100 µM; TGI (HOP-62 NSCLC): > 100 µM; GI50 (HCC-2998 colon): 72.3 µM; TGI (HCC-2998 colon): > 100 µM; GI50 (OVCAR-4 ovarian): 40.9 µM; TGI (OVCAR-4 ovarian): > 100 µM; GI50 (HS 578T breast): > 100 µM; TGI (HS 578T breast): > 100 µM; GI50 (MALME-3M melanoma): 424 nM; TGI (MALME-3M melanoma): 1690 nM; GI50 (LOX IMVI melanoma): > 100 µM; TGI (LOX IMVI melanoma): > 100 µM; GI50 (NCI-H23 lung): > 100 µM; TGI (NCI-H23 lung): > 100 µM; GI50 (CAKI-1 renal): > 100 µM; TGI (CAKI-1 renal): > 100 µM; GI50 (SK-MEL-28 melanoma): 3.77 µM; TGI (SK-MEL-28 melanoma): > 100 µM; GI50 (OVCAR-3 ovarian): 60.7 µM; TGI (OVCAR-3 ovarian): > 100 µM; GI50 (HL-60(TB) leukemia): > 100 µM; TGI (HL-60(TB) leukemia): > 100 µM; GI50 (NCI-H460 lung): > 100 µM; TGI (NCI-H460 lung): > 100 µM; GI50 (HCT-116 colon): > 100 µM; TGI (HCT-116 colon): > 100 µM; GI50 (OVCAR-5 ovarian): > 100 µM; TGI (OVCAR-5 ovarian): > 100 µM; GI50 (M14 melanoma): > 100 µM; TGI (M14 melanoma): > 100 µM; GI50 (PC-3 prostate): > 100 µM; TGI (PC-3 prostate): > 100 µM; GI50 (EKVX NSCLC): > 100 µM; TGI (EKVX NSCLC): > 100 µM; GI50 (NCI-H522 lung): 66.2 µM; TGI (NCI-H522 lung): > 100 µM; GI50 (SN12C renal): > 100 µM; TGI (SN12C renal): > 100 µM; GI50 (SF-268 CNS): > 100 µM; TGI (SF-268 CNS): > 100 µM; GI50 (SF-539 CNS): > 100 µM; TGI (SF-539 CNS): > 100 µM; GI50 (T-47D breast): > 100 µM; TGI (T-47D breast): > 100 µM; GI50 (MDA-MB-435): > 100 µM; TGI (MDA-MB-435): > 100 µM; GI50 (RPMI-8226 leukemia): > 100 µM; TGI (RPMI-8226 leukemia): > 100 µM; GI50 (KM12 colon): > 100 µM; TGI (KM12 colon): > 100 µM; GI50 (U251 CNS): > 100 µM; TGI (U251 CNS): > 100 µM; GI50 (MDA-MB-231 breast): > 100 µM; TGI (MDA-MB-231 breast): > 100 µM; GI50 (RXF 393 renal): > 100 µM; TGI (RXF 393 renal): > 100 µM; GI50 (NCI-H226 lung): > 100 µM; TGI (NCI-H226 lung): > 100 µM; GI50 (MOLT-4 leukemia): > 100 µM; TGI (MOLT-4 leukemia): > 100 µM; GI50 (SNB-75 CNS): > 100 µM; TGI (SNB-75 CNS): > 100 µM; GI50 (NCI/ADR-RES ovarian): > 100 µM; TGI (NCI/ADR-RES ovarian): > 100 µM; GI50 (SK-MEL-2 melanoma): 5.5 µM; TGI (SK-MEL-2 melanoma): 41.6 µM; GI50 (SW-620 colon): > 100 µM; TGI (SW-620 colon): > 100 µM; GI50 (ACHN renal): > 100 µM; TGI (ACHN renal): > 100 µM; GI50 (TK-10 renal): > 100 µM; TGI (TK-10 renal): > 100 µM; GI50 (HCT-15 colon): 96.9 µM; TGI (HCT-15 colon): > 100 µM; GI50 (CCRF-CEM leukemia): > 100 µM; TGI (CCRF-CEM leukemia): > 100 µM
